Bridge positions count the residues as written; N and C are the ends. Square brackets hold non-standard residues; d marks the D form. Peptide text beside a SMILES is read from it. * marks the point of attachment. Octanoyl = CCCCCCCC(=O)*; Dab = NCC[C@H](N)C(=O)O; Abu = CC[C@H](N)C(=O)O
Assays:
K. pneumoniae F145 = assay: MIC by E-strips on Mueller-Hinton agar with or without NAB7061 (4 µg/ml); type: cell-based, Klebsiella pneumoniae
Procedure: (§1) MICs were determined by using E-strips (Biodisk Ltd., Solna, Sweden) according to the manufacturer's instructions.
(§2) The strains originated from ATCC (11 strains), CCUG (11 strains), and NCTC (The National Collection of Type Cultures, Colindale, U.K.; 2 strains). Eight strains (the F-strains) were purchased from Mobidiag Ltd., Helsinki, Finland.

K. pneumoniae F136 = assay: as above; type: cell-based, Klebsiella pneumoniae
Procedure: as §1, §2

K. pneumoniae CCUG45421 = assay: as above; type: cell-based, Klebsiella pneumoniae
Procedure: as §1, §2

E. coli CCUG41422 = assay: as above; type: cell-based, Escherichia coli
Procedure: as §1, §2

E. coli CCUG41432 = assay: as above; type: cell-based, Escherichia coli
Procedure: as §1, §2

E. coli CCUG41425 = assay: as above; type: cell-based, Escherichia coli
Procedure: as §1, §2

E. coli CCUG41424 = assay: as above; type: cell-based, Escherichia coli
Procedure: as §1, §2

E. coli NCTC13351 = assay: as above; type: cell-based, Escherichia coli
Procedure: as §1, §2

[1] = biological target: brush-border membrane (BBM) of the renal cortex; assay: Inhibition of binding of radiolabelled gentamycin to brush-border membrane; set-up: species or system male albino rats; details: BBM vesicles, 20 µM [^3H] gentamycin, 60 min at 4°C, pH 7.5
Description: The binding of the compounds according to this invention to isolated brush-border membrane (BBM) from the renal cortex can be measured indirectly by measuring their ability to inhibit the binding of radiolabelled gentamycin to BBM. Accordingly, the compounds according to this invention that have less affinity to BBM than for example polymyxin B inhibit the binding of radio-labelled gentamycin to a lesser degree than does polymyxin B.
BBM was isolated from the renal cortex of male albino rats by using the Mg^2+/EGTA precipitation technique as described by Nagai et al. (2006). The binding of gentamycin was measured, according to the method described by Nagai et al. (2006) by incubating BBM vesicles (20µl) in 10 mM HEPES (pH 7.5) with 300 mM mannitol in the presence of 20 µM [^3H] gentamycin (American Radiolabeled Chemicals, Inc. (St. Louis, MO, U.S.A.)) with or without the compound to be tested or a positive control. After an incubation of 60 min at 4°C, 1 ml of ice-cold buffer described above was added, and the mixture was filtered through a Millipore filter (0.45 µm; HAWP). The filter was washed with the buffer and the radioactivity remaining in the filter was measured by using a liquid scintillation counter. The IC50 values were determined as in Nagai et al. (2006) using the Hill equation.

[2] = test system: Ps. aeruginosa ATCC 27853; assay: Growth inhibition around wells on LB plates containing rifampin (sensitization); type: cell-based, Pseudomonas aeruginosa; details: well containing 4 µg
E. cloacae ATCC23355 = assay: Growth inhibition around wells on LB agar plates; type: cell-based, Enterobacter cloacae; details: growth inhibition area around well
Procedure: From an overnight-grown culture of IH3080 on LB agar, a suspension of approx. 10^8 cells/ml was prepared in 0.9% NaCl. Aliquots of this suspension were then pipetted on the agar plates and the plates were gently shaken to spread the suspension evenly on the entire surface of the plate. Thereafter, the unabsorbed part of the suspension was removed by using a Pasteur pipette. After the surface had dried, small wells (diameter, 2 mm) were drilled on the plates (five wells per plate) by using a sterile sharp-edged narrow metal tube, single-use pipette tip, and vacuum suction. Samples (4 µl and 10 µl) of the peptide solution in 0.9% NaCl (at concentrations of 1 µg/ml and 0.1 µg/ml) were then pipetted to the wells and the sample fluids were allowed to absorb. Controls included 0.9% NaCl solution without the compound to be tested. The plates were then incubated for 18 h at 37°C whereafter the diameters of growth inhibition zones around each well were measured; the diameter of the well itself was […]. Finally, the diameters were converted to surface areas of growth inhibition (in square mm).
The susceptibility of eleven Gram-negative bacterial strains (nine different species) to NAB734 and polymyxin B was compared by using the susceptibility determination method described in Example 2. […]

Molecule: CCCCCCCC(=O)N[C@H](C(=O)N[C@@H](CC)C(=O)N[C@H]1CCNC(=O)[C@H]([C@@H](C)O)NC(=O)[C@H](CCN)NC(=O)[C@H](CCN)NC(=O)[C@H](CC(C)C)NC(=O)[C@@H](Cc2ccccc2)NC(=O)[C@H](CCN)NC1=O)[C@@H](C)O [NAB 7061, OA-Thr-Abu-cy[Dab-Dab-DPhe-Leu-Dab-Dab-Thr-]] (Octanoyl-T[Abu][Dab][Dab][dF]L[Dab][Dab]T; lactam 3-C)
- IC50 [1]: 187 µM
- Antibacterial activity, rifampin 0 ([2]; no rifampin (control)): 0 square millimeters
- Antibacterial activity, rifampin 0.1 ([2]; rifampin 0.1 µg/ml): 0 square millimeters
- Antibacterial activity, rifampin 0.3 ([2]; rifampin 0.3 µg/ml): 0 square millimeters

Molecule: Polymyxin B
- Antibacterial activity 4 µg (E. cloacae ATCC23355; 4 µg): 95 square millimeters
- Antibacterial activity 10 µg (E. cloacae ATCC23355; 10 µg): 143 square millimeters
